Experiment [1] concerns A498. In words: Antiproliferative activity against human A498 cells. Format: functional, cell-based.
Another experiment concerns 786-0. Description: Antiproliferative activity against human 786-0 cells. Format: functional, cell-based.
Experiment [2] deals with A498. In words: Cytotoxicity against human A498 cells incubated for 48 hrs by MTT assay. Format: functional, cell-based. The conditions noted are these: A498, 48 h.
For experiment [3], the target named is Vascular endothelial growth factor receptor 2 (Homo sapiens, UniProt P35968). In words: Inhibition of VEGFR2 (unknown origin) by Kinase-Glo max reagent based assay.
Vascular endothelial growth factor receptor 2, sequence (P35968 whole entry): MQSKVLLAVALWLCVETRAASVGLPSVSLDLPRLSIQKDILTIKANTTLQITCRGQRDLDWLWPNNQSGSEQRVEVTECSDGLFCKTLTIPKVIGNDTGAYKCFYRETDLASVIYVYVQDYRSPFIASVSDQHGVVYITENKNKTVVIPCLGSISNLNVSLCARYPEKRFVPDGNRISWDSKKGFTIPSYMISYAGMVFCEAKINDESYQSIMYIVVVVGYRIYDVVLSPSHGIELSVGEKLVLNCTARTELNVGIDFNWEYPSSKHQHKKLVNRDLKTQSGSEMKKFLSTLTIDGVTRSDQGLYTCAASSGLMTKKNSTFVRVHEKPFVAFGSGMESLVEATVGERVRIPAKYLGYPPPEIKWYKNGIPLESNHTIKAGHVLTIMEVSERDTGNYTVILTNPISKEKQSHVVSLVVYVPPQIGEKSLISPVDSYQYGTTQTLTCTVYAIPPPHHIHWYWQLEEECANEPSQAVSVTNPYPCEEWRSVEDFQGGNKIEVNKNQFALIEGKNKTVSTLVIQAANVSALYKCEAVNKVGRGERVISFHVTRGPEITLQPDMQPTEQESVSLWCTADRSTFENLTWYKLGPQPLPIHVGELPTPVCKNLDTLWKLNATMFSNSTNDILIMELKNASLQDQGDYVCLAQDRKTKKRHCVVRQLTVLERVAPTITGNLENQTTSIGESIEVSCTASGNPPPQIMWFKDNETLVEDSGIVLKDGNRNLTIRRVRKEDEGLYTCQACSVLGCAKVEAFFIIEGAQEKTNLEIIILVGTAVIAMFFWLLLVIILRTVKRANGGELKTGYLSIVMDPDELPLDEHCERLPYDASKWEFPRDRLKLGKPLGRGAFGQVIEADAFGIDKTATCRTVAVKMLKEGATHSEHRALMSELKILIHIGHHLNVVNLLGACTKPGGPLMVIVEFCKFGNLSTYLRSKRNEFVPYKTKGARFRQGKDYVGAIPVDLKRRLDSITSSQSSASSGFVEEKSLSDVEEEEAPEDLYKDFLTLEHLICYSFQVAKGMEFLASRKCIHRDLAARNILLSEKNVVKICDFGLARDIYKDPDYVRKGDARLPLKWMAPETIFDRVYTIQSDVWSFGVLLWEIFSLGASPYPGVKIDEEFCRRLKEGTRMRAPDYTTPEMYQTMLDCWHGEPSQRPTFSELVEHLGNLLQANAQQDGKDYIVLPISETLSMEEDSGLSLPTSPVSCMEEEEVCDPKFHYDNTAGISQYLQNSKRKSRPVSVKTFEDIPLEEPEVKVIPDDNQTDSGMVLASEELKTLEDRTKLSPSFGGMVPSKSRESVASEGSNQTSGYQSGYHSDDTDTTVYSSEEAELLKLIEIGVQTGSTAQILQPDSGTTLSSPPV
The subject of the next experiment is CAKI-1. Description: Cytotoxicity against human CAKI-1 cells incubated for 48 hrs by MTT assay. It is filed as functional, cell-based. The conditions noted are these: CAKI-1, 48 h. For orientation: Tetrazolium assays rely on reduction of a dye to a coloured formazan, in cell work by metabolically active cells.
The test system of another experiment is ACHN. Description: Induction of TRAIL induced apoptosis in human ACHN cells assessed as reduction in cFLIP level. Format: functional, cell-based.

On to `O=C(Nc1ccc([N+](=O)[O-])cc1O)Nc1ccccc1Br`, for which the values for the IC50 in the experiment on A498 [1] and in the experiment with 786-0 were 70 µM and 100 µM, respectively.
As to `CC(=O)/C(=N\Nc1ccccc1)Sc1nnc(-c2cc3ccccc3[nH]2)n1/N=C/c1ccc(C)cc1`, the concentration for half-maximal inhibition (IC50) (as a rule, the concentration at which inhibition is half-maximal) in the experiment on A498 [2] turned out to be 2050 nM; in experiment [3], 75 nM; in the experiment with CAKI-1, 3.23 µM.
For `CC(=O)OC[C@]12CC[C@H]3[C@@H](C[C@H]4O[C@]45CC=CC(=O)[C@]35C)[C@]1(O)CC[C@@]2(O)[C@@](C)(O)[C@H]1CC(C)=C(C)C(=O)O1`, the IC50 with ACHN was determined as 117 nM.
In experiment [3], `COc1ccc(/C=N/n2c(-c3cc4ccccc4[nH]3)n[nH]c2=S)cc1` gave an IC50 of 64 nM.
With `CCN(CC)CCNC(=O)c1c(C)[nH]c(/C=C2\C(=O)Nc3ccc(F)cc32)c1C` [SUNITINIB], the IC50 with A498 [2] was 1250 nM.
Turning to `CC1=C(C)C(=O)O[C@@H]([C@](C)(O)[C@]2(O)CC[C@@]3(O)[C@@H]4C[C@H]5O[C@]56CC=CC(=O)[C@]6(C)[C@H]4CC[C@]23C)C1` [WITHANOLIDE E], the IC50 with ACHN stood at 1400 nM.
In turn, `Cc1ccc(/C=N/n2c(-c3cc4ccccc4[nH]3)n[nH]c2=S)cc1` gave an IC50 in experiment [3] of 34 nM.
As for `CCOC(=O)/C(=N\Nc1ccccc1)Sc1nnc(-c2cc3ccccc3[nH]2)n1/N=C/c1ccc(OC)cc1`, the results for the 50% inhibitory concentration (IC50) (with A498 [2]; in experiment [3]; in the experiment on CAKI-1) were 640 nM, 77 nM and 8.46 µM, respectively.
Turning to `O=C(Nc1ccccc1)Nc1nc2ccccc2o1`, the half-inhibitory concentration (IC50) with A498 [1] and in the experiment on 786-0 was more than 25 µM throughout.
For `O=C(Nc1cccc(Cl)c1)Nc1nc2ccc([N+](=O)[O-])cc2s1`, the concentration for half-maximal inhibition (IC50) with A498 [1] was found to be 2.5 µM; in the experiment with 786-0, 2 µM.
On the same counts, the results for `O=C(Nc1ccc(Cl)cc1)Nc1nc2ccccc2[nH]1` are 9 µM and 20 µM.

Source of the values: ChEMBL document CHEMBL5512612, “Novel small molecule inhibitors targeting renal cell carcinoma: Status, challenges, future directions” (Eur J Med Chem, 2024).
